Reference: patent US6878548B2, “Composition for use in electroporation” (Pola Chemical Industries Inc., priority 2001, dated 2005)
Where a name gives a salt, the structure may show the parent alone. Read-outs that look alike come from different tables or passages of the source.

How the values were obtained:
[1] = percutaneous permeability test using a Franz cell after electroporation, abdominal skin
Protocol: Calcein sodium salt was used as a model labeled drug at a concentration of 1 mM. The ingredients were stirred and solubilized to obtain the compositions for electroporation (solutions) of the present invention. The percutaneous absorption promotion actions of these compositions for electroporation were measured by percutaneous permeability test using a Franz cell. That is, a skin sample was collected from the abdomen of a hairless rat, and subcutaneous fat was removed from the sample. The skin sample was loaded in the Franz cell as a partition wall with its horny cell layer facing towards the donor side. The receiver side was filled with an isotonic phosphate-buffered saline (PBS). The donor side was filled with 3 mL of the aforementioned composition for electroporation of the present invention. The receiver side was stirred at 1200 rpm by using a star-head type stirrer. After the electroporation, 0.3 mL of the solution in the receiver side was serially collected in a time course and added with the same amount of isotonic phosphate-buffered saline (PBS) to examine the percutaneous permeability. […] The amount of calcein sodium salt was measured by a fluorometer. Further, as for the conditions of electroporation, ECM-830 produced by BTX was used, 10 pulses of 10 ms at 300 V was applied at intervals of 1 minute immediately after the drug administration, and then the power was turned off.
The same examination as in Example 1 was conducted by using various metal chlorides.
The same examination as in Example 1 was conducted by using trivalent metal ion chlorides. As for the electroporation conditions, 10 pulses of 10 ms at 300 V were applied at intervals of 1 second immediately after the drug administration. As the trivalent metal ion chlorides, iron chloride and aluminum chloride were used.
The same examination as in Example 1 was conducted by using FITC-dextran as a model labeled drug. As for the electroporation conditions, 10 pulses of 10 ms at 300 V were applied at intervals of 1 second immediately after the drug administration. As the FITC-dextran, FD4 (molecular weight: 4300), FD10 (molecular weight: 9600) and FD40 (molecular weight: 35600) were used.

[2] = percutaneous permeability test using a Franz cell after electroporation, dorsal skin; assay type: in vitro ADME, hairless rat
Source text: However, dorsal skin of a hairless rat was used as the skin sample. […] As the model labeled drugs, sodium dexamethasone phosphate (DEX.Na), ritodrine hydrochloride (RIT), dimemorfan phosphate (DIM), caffeine (CAF), azelastine hydrochloride (AZR), tipepidine hibenzate (TIP), benzoic acid (BA), phenytoin (PEN) and testosterone (TES) were used.

## [Cl][Al]([Cl])[Cl] [aluminum chloride]
[1]
  percutaneous absorption (calcein), trivalent metal ion chlorides vs calcium ions: neither of the trivalent metal ions significantly promoted percutaneous absorption

## CN1CCCC(n2nc(Cc3ccc(Cl)cc3)c3ccccc3c2=O)CC1 (stereo not drawn) [azelastine hydrochloride]
[2]
  percutaneous absorption of the model labeled drug on addition of calcium ions: significantly promoted percutaneous absorption

## [Ba+2].[Cl-].[Cl-] [barium chloride]
[1]; Example 9, various divalent metal chlorides added, FIG. 7
  absorption of calcein during electroporation: promoted the absorption of calcein

## [Cl-].[K+] [potassium chloride]
[1]; Example 8, sample of Example 4 with metal chloride changed, all 150 mM, buprenorphine hydrochloride 0.02% by weight, FIGS. 5 and 6
  percutaneous absorption promotion action (buprenorphine hydrochloride): promoted percutaneous absorption

## CN1CCCC(=C(c2cccs2)c2cccs2)C1.O=C(O)c1ccccc1C(=O)c1ccc(O)cc1 [tipepidine hibenzate]
[2]; Example 11, dorsal skin, addition of CaCl2, 10 pulses of 10 ms at 300 V at intervals of 1 second, FIG. 9
  percutaneous absorption of the model labeled drug on addition of calcium ions: significantly promoted percutaneous absorption

## iron chloride
[1]
  percutaneous absorption (calcein), trivalent metal ion chlorides vs calcium ions: neither of the trivalent metal ions significantly promoted percutaneous absorption
